Laboratory results from patent US9295258B2, “Synergistic pesticidal compositions and related methods” (DOW AGROSCIENCES LLC, priority 2013, dated 2016).

Tests used:
[1] = tested on: Diamondback Moth, Plutella xylostella; test: Diamondback moth percent control on treated cabbage leaf discs (track sprayer), synergy by Colby's equation; type: in vivo
From the text: (§1) The method described in Colby S. R., “Calculating Synergistic and Antagonistic Responses of Herbicide Combinations,” Weeds, 1967, 15, 20-22 was used to determine an existence of synergic effect between the ecdysone receptor agonist compound and the pesticide in the formulated pesticidal composition. In this method, the percent insect control of the formulated pesticidal composition as observed in the study was compared to the “expected” percent control (E) as calculated by equation (1) (hereinafter “Colby's equation”) below: […]
(§2) X is the percentage of control with the first pesticide at a given rate (p),
(§3) Y is the percentage of control with the second pesticide at a given rate (q), and
E is the expected control by the first and second pesticide at a rate of p+q.
Bioassays were performed for different active compounds. […] The “Colby's Expected Action” was calculated using Colby's equation as discussed previously.
(§4) Bioassays were performed for different active compounds. […] The “Colby's Expected Action” was calculated using Colby's equation as discussed previously. […]
as §4

[2] = tested on: Cotton Aphid, Aphis gossypii (Glover); test: Cotton aphid percent control on treated cotton plants (track sprayer), synergy by Colby's equation; type: in vivo; settings: cotton plants at cotyledon stage
From the text: as §1, §2, §3
E is the expected control by the first and second pesticide at a rate of p+q. […]
Cotton plants at cotyledon stage were treated with different active compounds using track sprayer. […] The percent control of the pesticidal composition against cotton aphid, Aphis gossypii (Glover), was determined as the “Observed” action, and compared to those obtained by using about 0.002 weight % of compound II, and using about 0.005 weight % of methoxyfenozide alone. The “Colby's Expected Action” was calculated using Colby's equation as discussed previously.

Compound: CCN(C(=O)CCSCCC(F)(F)F)c1cn(-c2cccnc2)nc1Cl [Compound I, N-(3-chloro-1-(pyridin-3-yl)-1H-pyrazol-4-yl)-N-ethyl-3-((3,3,3-trifluoropropyl)thio)propanamide]
- Average % Control Five Days After Treatment ([1]; Compound I alone (1:0), average of 0.0025, 0.000625 and 0.0001531 weight %): 7.58%

Compound: CCN(C(=O)CC[S+]([O-])CCC(F)(F)F)c1cn(-c2cccnc2)nc1Cl (stereo not shown) [Compound II, N-(3-chloro-1-(pyridin-3-yl)-1H-pyrazol-4-yl)-N-ethyl-3-((3,3,3-trifluoropropyl)sulfinyl)propanamide]
- % Control Three Days After Treatment ([2]; Compound II alone, dose rate 0.002 weight %): 28%

Compound: COc1cccc(C(=O)NN(C(=O)c2cc(C)cc(C)c2)C(C)(C)C)c1C [Methoxyfenozide, 3-methoxy-2-methylbenzoic acid 2-(3,5-dimethylbenzoyl)-2-(1,1-dimethylethyl)hydrazide]
- Average % Control Five Days After Treatment ([1]; Methoxyfenozide alone (0:1), average of 0.02, 0.005, 0.00125 and 0.0003125 weight %): 15.9%
- % Control Three Days After Treatment ([2]; Methoxyfenozide alone, dose rate 0.005 weight %): 23%
